Data from ChEMBL document CHEMBL5108012, “Discovery of 2,5-diphenyl-1,3,4-thiadiazole derivatives as HDAC inhibitors with DNA binding affinity” (Eur J Med Chem, 2022).
One block for each compound: values may come before it. Activity calls are given as the source filed them. The rule behind the calls is not given here.

Tests used:
[1] = target: Histone deacetylase (HDAC1 and HDAC2) (Homo sapiens, UniProt Q13547+Q92769); test: Inhibition of HDAC1/HDAC2 in human HeLa cell nuclear extract using Boc-Lys(Ac)-AMC as substrate and measured by fluorometric method; type: cell-based
Calf thymus DNA [2] = test: Binding affinity to calf thymus DNA at 50 uM incubated for 30 mins and measured by UV-vis absorption spectroscopy; type: nucleic-acid assay; conditions: Bos taurus
Calf thymus DNA [3] = test: Binding affinity to calf thymus DNA at 50 uM incubated for 30 mins and measured by fluorescence spectroscopy; type: nucleic-acid assay; conditions: Bos taurus
Histone deacetylase 1 = Histone deacetylase 1 (Homo sapiens, UniProt Q13547); test: Inhibition of HDAC1 in human HeLa cell nuclear extract using Boc-Lys(Ac)-AMC or Boc-Lys(triflouroacetyl)-AMC as substrate incubated for 30 mins and measured by fluorescence assay; type: cell-free
Chain of Histone deacetylase 1 (Q13547 whole entry): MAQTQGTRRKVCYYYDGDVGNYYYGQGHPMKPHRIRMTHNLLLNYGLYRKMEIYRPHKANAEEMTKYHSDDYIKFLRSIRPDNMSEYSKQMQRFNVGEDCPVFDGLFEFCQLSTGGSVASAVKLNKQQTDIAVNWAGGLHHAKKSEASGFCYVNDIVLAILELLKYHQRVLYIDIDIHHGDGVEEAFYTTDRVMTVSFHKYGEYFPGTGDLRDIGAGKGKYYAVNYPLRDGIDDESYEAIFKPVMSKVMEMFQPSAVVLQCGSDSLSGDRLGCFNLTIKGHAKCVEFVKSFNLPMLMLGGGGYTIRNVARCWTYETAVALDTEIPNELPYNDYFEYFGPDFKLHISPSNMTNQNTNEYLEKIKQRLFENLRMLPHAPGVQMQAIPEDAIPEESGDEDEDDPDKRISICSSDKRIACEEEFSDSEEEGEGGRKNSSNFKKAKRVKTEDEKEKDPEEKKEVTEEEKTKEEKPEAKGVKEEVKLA

[4] = target: T1, Protein deacetylase HDAC6 (Homo sapiens, UniProt Q9UBN7); test: Inhibition of HDAC6 in human HeLa cell nuclear extract using Boc-Lys(Ac)-AMC or Boc-Lys(triflouroacetyl)-AMC as substrate incubated for 30 mins and measured by fluorescence assay; type: cell-free
T1 sequence (Q9UBN7 whole entry): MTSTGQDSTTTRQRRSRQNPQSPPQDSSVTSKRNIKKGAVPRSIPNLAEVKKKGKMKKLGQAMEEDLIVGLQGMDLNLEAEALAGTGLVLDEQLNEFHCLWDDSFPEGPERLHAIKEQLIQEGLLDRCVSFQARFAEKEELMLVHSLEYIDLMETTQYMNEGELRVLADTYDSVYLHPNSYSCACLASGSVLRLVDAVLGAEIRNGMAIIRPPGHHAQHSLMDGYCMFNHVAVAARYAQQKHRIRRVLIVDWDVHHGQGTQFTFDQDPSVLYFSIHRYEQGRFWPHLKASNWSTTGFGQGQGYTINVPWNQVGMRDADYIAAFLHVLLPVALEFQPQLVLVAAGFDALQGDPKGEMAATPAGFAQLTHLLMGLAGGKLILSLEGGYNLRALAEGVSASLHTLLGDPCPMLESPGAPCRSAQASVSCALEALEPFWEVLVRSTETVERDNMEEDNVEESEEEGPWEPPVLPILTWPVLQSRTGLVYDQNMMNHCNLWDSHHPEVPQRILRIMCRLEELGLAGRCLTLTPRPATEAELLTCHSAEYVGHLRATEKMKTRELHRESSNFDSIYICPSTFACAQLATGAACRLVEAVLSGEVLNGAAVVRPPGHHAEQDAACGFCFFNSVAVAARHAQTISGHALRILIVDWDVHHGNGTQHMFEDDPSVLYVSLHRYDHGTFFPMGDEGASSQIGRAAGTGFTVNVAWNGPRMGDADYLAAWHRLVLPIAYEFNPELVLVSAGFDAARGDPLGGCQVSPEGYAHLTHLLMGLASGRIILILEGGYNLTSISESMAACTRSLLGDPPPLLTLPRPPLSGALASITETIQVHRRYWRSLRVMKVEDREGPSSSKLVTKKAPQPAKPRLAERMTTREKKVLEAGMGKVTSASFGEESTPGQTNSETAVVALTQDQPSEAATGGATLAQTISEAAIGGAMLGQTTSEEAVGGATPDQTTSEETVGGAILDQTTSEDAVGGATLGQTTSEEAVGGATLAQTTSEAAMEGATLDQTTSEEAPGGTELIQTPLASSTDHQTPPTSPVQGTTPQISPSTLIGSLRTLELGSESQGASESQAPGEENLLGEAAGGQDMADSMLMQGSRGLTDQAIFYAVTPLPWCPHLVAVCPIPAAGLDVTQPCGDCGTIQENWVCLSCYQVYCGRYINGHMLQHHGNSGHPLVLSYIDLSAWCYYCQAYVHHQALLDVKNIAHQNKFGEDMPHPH

Histone deacetylase 8 = target: T2, Histone deacetylase 8 (Homo sapiens, UniProt Q9BY41); test: Inhibition of HDAC8 in human HeLa cell nuclear extract using Boc-Lys(Ac)-AMC or Boc-Lys(triflouroacetyl)-AMC as substrate incubated for 30 mins and measured by fluorescence assay; type: cell-free
T2 sequence (Q9BY41 whole entry): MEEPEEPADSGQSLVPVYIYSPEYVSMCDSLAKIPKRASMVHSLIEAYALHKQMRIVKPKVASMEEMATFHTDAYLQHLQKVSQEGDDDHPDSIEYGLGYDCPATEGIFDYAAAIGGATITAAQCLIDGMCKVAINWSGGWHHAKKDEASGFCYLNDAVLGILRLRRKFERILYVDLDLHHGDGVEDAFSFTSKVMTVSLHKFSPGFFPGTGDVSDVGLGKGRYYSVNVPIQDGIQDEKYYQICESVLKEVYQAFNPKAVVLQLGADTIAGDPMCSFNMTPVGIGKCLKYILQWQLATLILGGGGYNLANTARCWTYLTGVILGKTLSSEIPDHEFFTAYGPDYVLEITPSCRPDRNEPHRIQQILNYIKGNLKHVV

HCT-116 [5] = test: Antiproliferative activity against human HCT-116 cells after 48 hrs by CCK-8 assay; type: functional, cell-based; conditions: HCT-116, 48 h
HeLa = test: Antiproliferative activity against human HeLa cells after 48 hrs by CCK-8 assay; type: functional, cell-based
HepG2 = test: Antiproliferative activity against human HepG2 cells after 48 hrs by CCK-8 assay; type: functional, cell-based; conditions: HepG2, 48 h
MC-38 = test: Antiproliferative activity against mouse MC38 cells after 48 hrs by CCK-8 assay; type: functional, cell-based; conditions: MC-38, 48 h
K562 = test: Antiproliferative activity against human K562 cells after 48 hrs by CCK-8 assay; type: functional, cell-based; conditions: K562, 48 h
HEL = test: Antiproliferative activity against human HEL cells after 48 hrs by CCK-8 assay; type: functional, cell-based
MOLT-4 = test: Antiproliferative activity against human MOLT-4 cells after 48 hrs by CCK-8 assay; type: functional, cell-based; conditions: MOLT-4, 48 h
HCT-116 [6] = test: Induction of apoptosis in human HCT-116 cells assessed as early apoptotic cells at 1.5 uM incubated for 48 hrs by PI and annexin V-FITC staining based flow cytometry (reference value: 3.4%); type: functional
HCT-116 [7] = test: Induction of apoptosis in human HCT-116 cells assessed as late apoptotic cells at 1.5 uM incubated for 48 hrs by PI and annexin V-FITC staining based flow cytometry (reference value: 3.4%); type: functional

SMILES: COc1cc(-c2nnc(-c3ccc(OCCCCCCCC(=O)NO)cc3)s2)cc(OC)c1OC
IC50 [1]: > 1000 nM

SMILES: COc1cc(-c2nnc(-c3ccc(OCCCCCC(=O)NO)cc3)s2)cc(OC)c1OC
IC50 [1]: > 1000 nM

SMILES: COc1cc(-c2nnc(-c3ccc(OCCCCC(=O)NO)cc3)s2)cc(OC)c1OC
IC50 [1]: > 1000 nM

SMILES: CN1CCN(c2ccc3[nH]c(-c4ccc5[nH]c(-c6ccc(O)cc6)nc5c4)nc3c2)CC1
Activity (Calf thymus DNA [2]): Active | Activity (Calf thymus DNA [3]): Active

SMILES: COc1cc(-c2nnc(-c3ccc(OCCCCCCC(=O)NO)cc3)s2)cc(OC)c1OC
IC50 [1]: 537 nM

SMILES: O=C(COc1ccc(-c2nnc(-c3ccccc3Cl)s2)cc1)NO
IC50 [1]: > 1000 nM

SMILES: COc1cc(-c2nnc(-c3cccc(OCCCCC(=O)NO)c3)s2)cc(OC)c1OC
IC50 [1]: > 1000 nM

SMILES: COc1cc(-c2nnc(-c3cccc(OCCCCCC(=O)NO)c3)s2)cc(O)c1OC
IC50 [1]: > 1000 nM

SMILES: O=C(CCCOc1ccc(-c2nnc(-c3ccccc3Cl)s2)cc1)NO
IC50 [1]: > 1000 nM

SMILES: O=C(CCCCCCCOc1ccc(-c2nnc(-c3ccccc3Cl)s2)cc1)NO
IC50 [1]: > 1000 nM

SMILES: COc1cc(-c2nnc(-c3cccc(OCCCCCCC(=O)NO)c3)s2)cc(OC)c1OC
IC50 [1]: 366 nM

SMILES: O=C(CCCCCCOc1ccc(-c2nnc(-c3ccccc3Cl)s2)cc1)NO
IC50 [1]: > 1000 nM

SMILES: COc1cc(-c2nnc(-c3cccc(OCC(=O)NO)c3)s2)cc(OC)c1OC
IC50 [1]: > 1000 nM

SMILES: O=C(CCCCCCC(=O)Nc1ccccc1)NO [VORINOSTAT]
Activity (HCT-116 [6]): 5.05% | Activity (HCT-116 [7]): 5.05%

SMILES: O=C(COc1cccc(-c2nnc(-c3ccccc3Cl)s2)c1)NO
IC50 [1]: > 1000 nM

SMILES: COc1cc(-c2nnc(-c3ccc(OCCCC(=O)NO)cc3)s2)cc(OC)c1OC
IC50 [1]: > 1000 nM

SMILES: COc1cc(-c2nnc(-c3cccc(OCCCCCCCC(=O)NO)c3)s2)cc(OC)c1OC
IC50 [1]: 395 nM

SMILES: COc1cc(-c2nnc(-c3cccc(OCCCC(=O)NO)c3)s2)cc(OC)c1OC
IC50 [1]: > 1000 nM

SMILES: COc1cc(-c2nnc(-c3ccc(OCC(=O)NO)cc3)s2)cc(OC)c1OC
IC50 [1]: > 1000 nM

Continued, in another order:

IC50 [1]: > 1000 nM
SMILES: O=C(CCCCOc1ccc(-c2nnc(-c3ccccc3Cl)s2)cc1)NO

IC50 [1]: 339 nM
SMILES: O=C(CCCCCOc1cccc(-c2nnc(-c3ccccc3Cl)s2)c1)NO

IC50 [1]: > 1000 nM
SMILES: O=C(CCCCCOc1ccc(-c2nnc(-c3ccccc3)s2)cc1)NO

IC50 [1]: > 1000 nM
SMILES: O=C(COc1cccc(-c2nnc(-c3ccccc3)s2)c1)NO

IC50 [1]: 656 nM
SMILES: O=C(CCCCOc1cccc(-c2nnc(-c3ccccc3Cl)s2)c1)NO

IC50 [1]: > 1000 nM
SMILES: O=C(CCCCCCCOc1ccc(-c2nnc(-c3ccccc3)s2)cc1)NO

IC50 [1]: > 1000 nM
SMILES: O=C(CCCOc1ccc(-c2nnc(-c3ccccc3)s2)cc1)NO

IC50 [1]: 362 nM
SMILES: O=C(CCCCOc1ccc(-c2nnc(-c3ccccc3)s2)cc1)NO

IC50 [1]: > 1000 nM
SMILES: O=C(CCCOc1cccc(-c2nnc(-c3ccccc3Cl)s2)c1)NO

IC50 [1]: 118 nM | IC50 (Histone deacetylase 1): 179 nM | IC50 [4]: 32 nM | IC50 (Histone deacetylase 8): 3110 nM | IC50 (HCT-116 [5]): 2 µM | IC50 (HeLa): 1.9 µM | IC50 (HepG2): 11 µM | IC50 (K562): 2.1 µM | IC50 (MOLT-4): 490 nM
SMILES: O=C(CCCCOc1cccc(-c2nnc(-c3ccccc3)s2)c1)NO
IC50 (MC-38): 7.1 µM | IC50 (HEL): 570 nM

IC50 [1]: 538 nM
SMILES: O=C(CCCCCCCOc1cccc(-c2nnc(-c3ccccc3)s2)c1)NO

IC50 [1]: > 1000 nM
SMILES: O=C(COc1ccc(-c2nnc(-c3ccccc3)s2)cc1)NO

IC50 [1]: > 1000 nM
SMILES: O=C(CCCOc1cccc(-c2nnc(-c3ccccc3)s2)c1)NO

IC50 [1]: 57 nM | IC50 (Histone deacetylase 1): 19 nM | IC50 [4]: 185 nM | IC50 (Histone deacetylase 8): 2390 nM | IC50 (HCT-116 [5]): 2.9 µM | IC50 (HeLa): 4.9 µM | IC50 (HepG2): 2.2 µM | IC50 (K562): 3.2 µM | IC50 (MOLT-4): 710 nM
SMILES: O=C(CCCCCCOc1cccc(-c2nnc(-c3ccccc3)s2)c1)NO
IC50 (MC-38): 2.4 µM | IC50 (HEL): 2600 nM

IC50 [1]: 461 nM
SMILES: O=C(CCCCCCCOc1cccc(-c2nnc(-c3ccccc3Cl)s2)c1)NO

IC50 [1]: 199 nM | IC50 (Histone deacetylase 1): 82 nM | IC50 [4]: 64 nM | IC50 (Histone deacetylase 8): > 10000 nM | IC50 (HCT-116 [5]): 20 µM | IC50 (HeLa): > 50 µM | IC50 (HepG2): > 50 µM | IC50 (K562): 16 µM | IC50 (MOLT-4): 3100 nM
SMILES: O=C(CCCCCCOc1ccc(-c2nnc(-c3ccccc3)s2)cc1)NO
IC50 (MC-38): 14 µM | IC50 (HEL): > 10000 nM

IC50 [1]: > 1000 nM
SMILES: O=C(CCCCCOc1ccc(-c2nnc(-c3ccccc3Cl)s2)cc1)NO

IC50 [1]: 168 nM | IC50 (Histone deacetylase 1): 168 nM | IC50 [4]: 30 nM | IC50 (Histone deacetylase 8): 1520 nM | IC50 (HCT-116 [5]): 10 µM | IC50 (HeLa): 17 µM | IC50 (HepG2): 21 µM | IC50 (K562): 7.7 µM | IC50 (MOLT-4): 2400 nM
SMILES: O=C(CCCCCCOc1cccc(-c2nnc(-c3ccccc3Cl)s2)c1)NO
IC50 (MC-38): 16 µM | IC50 (HEL): 8100 nM
